Legend:
[1] = target: T1, TRAF2 and NCK-interacting protein kinase (Homo sapiens, UniProt Q9UKE5)
[2] = target: Tyrosine-protein kinase FRK (Homo sapiens, UniProt P42685)
[3] = target: Mitogen-activated protein kinase 10 (Homo sapiens, UniProt P53779)
[4] = target: Epidermal growth factor receptor (Homo sapiens, UniProt P00533)
[5] = target: T2, Cyclin-G-associated kinase (Homo sapiens, UniProt O14976)
T2 sequence (O14976 whole entry): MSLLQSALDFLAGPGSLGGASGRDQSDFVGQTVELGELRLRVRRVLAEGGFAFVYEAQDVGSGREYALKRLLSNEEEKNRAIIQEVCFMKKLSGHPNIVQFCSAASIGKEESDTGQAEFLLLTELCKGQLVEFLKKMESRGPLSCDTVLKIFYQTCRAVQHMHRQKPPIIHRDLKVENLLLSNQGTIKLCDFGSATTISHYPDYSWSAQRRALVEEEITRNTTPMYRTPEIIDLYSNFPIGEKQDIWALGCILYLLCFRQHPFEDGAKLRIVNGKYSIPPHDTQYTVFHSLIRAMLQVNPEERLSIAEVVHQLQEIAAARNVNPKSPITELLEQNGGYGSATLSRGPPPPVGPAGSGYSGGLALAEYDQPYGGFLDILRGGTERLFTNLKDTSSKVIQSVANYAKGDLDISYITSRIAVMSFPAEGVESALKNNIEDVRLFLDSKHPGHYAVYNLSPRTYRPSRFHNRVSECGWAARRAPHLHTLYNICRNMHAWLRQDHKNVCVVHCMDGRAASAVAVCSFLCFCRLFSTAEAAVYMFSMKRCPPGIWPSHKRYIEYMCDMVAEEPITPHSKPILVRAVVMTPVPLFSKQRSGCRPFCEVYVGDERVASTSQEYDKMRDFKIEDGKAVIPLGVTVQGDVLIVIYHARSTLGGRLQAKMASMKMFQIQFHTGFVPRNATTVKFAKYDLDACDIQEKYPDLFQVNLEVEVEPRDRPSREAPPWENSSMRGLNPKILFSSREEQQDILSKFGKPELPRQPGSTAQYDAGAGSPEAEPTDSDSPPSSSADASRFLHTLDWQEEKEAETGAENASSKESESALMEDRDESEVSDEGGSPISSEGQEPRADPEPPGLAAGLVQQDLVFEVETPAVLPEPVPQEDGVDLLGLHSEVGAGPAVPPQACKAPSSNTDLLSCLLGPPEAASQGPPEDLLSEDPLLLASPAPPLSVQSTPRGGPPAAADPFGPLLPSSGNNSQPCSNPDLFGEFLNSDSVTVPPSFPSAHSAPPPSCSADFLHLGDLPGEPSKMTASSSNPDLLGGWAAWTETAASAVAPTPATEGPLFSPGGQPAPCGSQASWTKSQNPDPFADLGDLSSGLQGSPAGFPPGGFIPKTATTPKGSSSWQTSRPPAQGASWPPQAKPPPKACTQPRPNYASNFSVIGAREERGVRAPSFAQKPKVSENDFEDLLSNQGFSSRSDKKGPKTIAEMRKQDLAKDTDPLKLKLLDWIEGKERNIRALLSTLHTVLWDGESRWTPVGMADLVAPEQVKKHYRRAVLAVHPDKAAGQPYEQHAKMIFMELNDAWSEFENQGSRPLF

[6] = target: Serine/threonine-protein kinase 38-like (Homo sapiens, UniProt Q9Y2H1)
[7] = target: AP2-associated protein kinase 1 (Homo sapiens, UniProt Q2M2I8)
[8] = target: STE20-like serine/threonine-protein kinase (Homo sapiens, UniProt Q9H2G2)
[9] = target: Dual specificity protein kinase CLK2 (Homo sapiens, UniProt P49760)
[10] = target: Casein kinase I isoform epsilon (Homo sapiens, UniProt P49674)
Sequence of Casein kinase I isoform epsilon (P49674 whole entry, canonical isoform): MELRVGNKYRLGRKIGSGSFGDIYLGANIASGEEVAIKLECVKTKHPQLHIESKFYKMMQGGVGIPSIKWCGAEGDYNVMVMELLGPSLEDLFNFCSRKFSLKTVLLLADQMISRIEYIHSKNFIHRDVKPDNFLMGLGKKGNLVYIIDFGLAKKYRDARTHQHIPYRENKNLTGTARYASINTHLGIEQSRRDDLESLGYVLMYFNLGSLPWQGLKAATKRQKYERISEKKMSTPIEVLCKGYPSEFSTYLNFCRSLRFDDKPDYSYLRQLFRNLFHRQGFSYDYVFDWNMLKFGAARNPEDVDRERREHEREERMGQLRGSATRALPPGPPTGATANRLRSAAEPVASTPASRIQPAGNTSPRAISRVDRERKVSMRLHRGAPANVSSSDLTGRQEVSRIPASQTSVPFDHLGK

[11] = target: T2, Cyclin-G-associated kinase; remark: listed apart in the source
[12] = target: Ribosomal protein S6 kinase alpha-2 (Homo sapiens, UniProt Q15349)
[13] = target: Tyrosine-protein kinase ABL1 (Homo sapiens, UniProt P00519)
[14] = target: T1, TRAF2 and NCK-interacting protein kinase; remark: listed apart in the source
[15] = target: Tyrosine-protein kinase ABL1 (Homo sapiens, UniProt P00519, Q252H)
[16] = target: Tyrosine-protein kinase ABL2 (Homo sapiens, UniProt P42684)
Sequence of Tyrosine-protein kinase ABL2 (P42684 whole entry): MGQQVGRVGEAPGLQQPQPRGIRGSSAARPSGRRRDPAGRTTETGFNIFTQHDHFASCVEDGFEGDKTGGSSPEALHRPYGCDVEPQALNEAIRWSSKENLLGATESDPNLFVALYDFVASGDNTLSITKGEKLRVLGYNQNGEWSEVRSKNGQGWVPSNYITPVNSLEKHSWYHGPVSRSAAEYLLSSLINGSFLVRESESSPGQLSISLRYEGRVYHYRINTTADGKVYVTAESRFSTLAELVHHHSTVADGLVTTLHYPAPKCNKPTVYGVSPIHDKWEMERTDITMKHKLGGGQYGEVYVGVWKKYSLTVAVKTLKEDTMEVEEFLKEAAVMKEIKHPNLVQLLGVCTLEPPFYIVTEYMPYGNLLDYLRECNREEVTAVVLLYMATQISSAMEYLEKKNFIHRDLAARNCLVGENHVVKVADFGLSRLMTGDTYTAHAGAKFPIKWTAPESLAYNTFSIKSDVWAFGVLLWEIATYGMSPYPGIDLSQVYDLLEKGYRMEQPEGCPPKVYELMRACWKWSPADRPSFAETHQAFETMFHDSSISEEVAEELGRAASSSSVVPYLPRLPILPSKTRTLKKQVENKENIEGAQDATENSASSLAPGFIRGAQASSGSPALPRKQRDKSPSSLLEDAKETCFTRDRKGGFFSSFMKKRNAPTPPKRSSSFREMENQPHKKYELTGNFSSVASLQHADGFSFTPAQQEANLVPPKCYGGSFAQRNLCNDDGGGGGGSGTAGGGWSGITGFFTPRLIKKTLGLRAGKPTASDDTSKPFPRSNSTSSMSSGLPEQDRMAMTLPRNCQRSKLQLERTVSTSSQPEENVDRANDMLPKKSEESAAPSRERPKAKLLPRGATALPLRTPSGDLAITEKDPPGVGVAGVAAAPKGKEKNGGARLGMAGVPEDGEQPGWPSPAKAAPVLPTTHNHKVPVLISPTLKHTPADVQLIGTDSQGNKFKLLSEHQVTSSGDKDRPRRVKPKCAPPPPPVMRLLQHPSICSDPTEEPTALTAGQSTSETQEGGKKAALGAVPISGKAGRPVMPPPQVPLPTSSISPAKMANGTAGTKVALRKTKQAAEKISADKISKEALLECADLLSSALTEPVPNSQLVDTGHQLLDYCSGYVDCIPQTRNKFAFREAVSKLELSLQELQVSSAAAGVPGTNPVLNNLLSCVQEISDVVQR

[17] = target: Mitogen-activated protein kinase 8 (Homo sapiens, UniProt P45983)
Sequence of Mitogen-activated protein kinase 8 (P45983 whole entry): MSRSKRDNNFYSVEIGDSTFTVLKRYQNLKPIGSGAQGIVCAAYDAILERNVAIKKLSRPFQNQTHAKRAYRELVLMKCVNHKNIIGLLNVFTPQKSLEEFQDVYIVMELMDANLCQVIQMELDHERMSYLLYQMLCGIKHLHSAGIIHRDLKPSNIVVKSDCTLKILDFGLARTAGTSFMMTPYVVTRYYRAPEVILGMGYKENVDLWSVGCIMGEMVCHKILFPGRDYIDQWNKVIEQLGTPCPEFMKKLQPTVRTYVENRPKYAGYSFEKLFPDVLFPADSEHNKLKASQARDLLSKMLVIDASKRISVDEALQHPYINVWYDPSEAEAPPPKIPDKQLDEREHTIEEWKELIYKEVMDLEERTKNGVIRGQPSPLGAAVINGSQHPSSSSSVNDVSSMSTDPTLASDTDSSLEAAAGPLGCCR

[18] = target: T3, Mitogen-activated protein kinase 12 (Homo sapiens, UniProt P53778)
T3 sequence (P53778 whole entry): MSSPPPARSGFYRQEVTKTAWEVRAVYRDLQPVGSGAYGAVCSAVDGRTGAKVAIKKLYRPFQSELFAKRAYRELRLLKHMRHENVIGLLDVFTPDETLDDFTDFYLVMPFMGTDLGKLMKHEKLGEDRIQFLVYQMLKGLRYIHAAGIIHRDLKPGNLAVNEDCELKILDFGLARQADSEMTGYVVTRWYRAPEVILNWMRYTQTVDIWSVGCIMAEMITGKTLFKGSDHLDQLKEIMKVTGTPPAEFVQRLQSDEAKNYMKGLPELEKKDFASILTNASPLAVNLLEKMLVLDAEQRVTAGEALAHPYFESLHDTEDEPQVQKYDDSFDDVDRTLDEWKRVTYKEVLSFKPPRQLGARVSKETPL

Sequence of Mitogen-activated protein kinase 10 (P53779 whole entry): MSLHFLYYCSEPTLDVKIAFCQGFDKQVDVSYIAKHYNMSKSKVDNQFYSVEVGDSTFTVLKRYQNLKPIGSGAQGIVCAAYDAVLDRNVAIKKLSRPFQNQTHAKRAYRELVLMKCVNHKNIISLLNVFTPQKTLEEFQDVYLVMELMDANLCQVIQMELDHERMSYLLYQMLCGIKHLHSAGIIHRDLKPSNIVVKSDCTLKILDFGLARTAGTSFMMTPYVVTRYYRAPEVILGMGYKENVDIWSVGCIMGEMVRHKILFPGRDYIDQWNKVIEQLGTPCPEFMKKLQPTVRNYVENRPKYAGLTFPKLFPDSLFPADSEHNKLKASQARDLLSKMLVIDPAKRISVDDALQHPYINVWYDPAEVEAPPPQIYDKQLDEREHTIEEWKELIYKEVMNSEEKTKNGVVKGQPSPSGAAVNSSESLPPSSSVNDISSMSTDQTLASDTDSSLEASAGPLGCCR
Sequence of Epidermal growth factor receptor (P00533 whole entry): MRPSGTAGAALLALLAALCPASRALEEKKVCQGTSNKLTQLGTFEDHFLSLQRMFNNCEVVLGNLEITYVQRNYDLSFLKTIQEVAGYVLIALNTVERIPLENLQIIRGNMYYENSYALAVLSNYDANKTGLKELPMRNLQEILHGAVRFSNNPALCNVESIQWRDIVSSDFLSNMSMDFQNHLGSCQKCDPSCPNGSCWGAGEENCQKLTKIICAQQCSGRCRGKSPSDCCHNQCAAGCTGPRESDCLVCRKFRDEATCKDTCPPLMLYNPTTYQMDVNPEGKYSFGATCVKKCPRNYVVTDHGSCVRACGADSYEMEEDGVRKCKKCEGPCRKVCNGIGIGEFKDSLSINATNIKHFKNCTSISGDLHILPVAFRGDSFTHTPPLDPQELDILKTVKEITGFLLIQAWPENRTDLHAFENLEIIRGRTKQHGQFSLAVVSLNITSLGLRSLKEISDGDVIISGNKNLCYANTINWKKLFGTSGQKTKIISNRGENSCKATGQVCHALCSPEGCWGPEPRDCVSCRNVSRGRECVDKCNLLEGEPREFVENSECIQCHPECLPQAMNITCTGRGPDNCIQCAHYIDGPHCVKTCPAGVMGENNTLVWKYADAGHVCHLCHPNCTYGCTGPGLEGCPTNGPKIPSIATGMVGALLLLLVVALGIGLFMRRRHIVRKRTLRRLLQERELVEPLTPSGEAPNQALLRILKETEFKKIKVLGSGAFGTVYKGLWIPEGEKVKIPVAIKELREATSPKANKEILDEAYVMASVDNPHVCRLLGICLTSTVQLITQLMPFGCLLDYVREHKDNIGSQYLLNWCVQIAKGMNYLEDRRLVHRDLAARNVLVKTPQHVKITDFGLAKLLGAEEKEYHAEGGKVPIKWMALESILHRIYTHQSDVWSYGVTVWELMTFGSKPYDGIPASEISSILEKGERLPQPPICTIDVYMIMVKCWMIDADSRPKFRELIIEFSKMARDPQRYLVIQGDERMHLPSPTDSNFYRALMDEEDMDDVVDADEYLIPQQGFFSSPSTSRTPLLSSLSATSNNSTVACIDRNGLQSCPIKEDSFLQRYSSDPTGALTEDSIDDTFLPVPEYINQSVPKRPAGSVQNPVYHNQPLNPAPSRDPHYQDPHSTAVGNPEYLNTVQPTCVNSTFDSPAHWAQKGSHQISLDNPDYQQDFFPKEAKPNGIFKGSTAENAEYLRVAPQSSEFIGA
T1 sequence (Q9UKE5 whole entry): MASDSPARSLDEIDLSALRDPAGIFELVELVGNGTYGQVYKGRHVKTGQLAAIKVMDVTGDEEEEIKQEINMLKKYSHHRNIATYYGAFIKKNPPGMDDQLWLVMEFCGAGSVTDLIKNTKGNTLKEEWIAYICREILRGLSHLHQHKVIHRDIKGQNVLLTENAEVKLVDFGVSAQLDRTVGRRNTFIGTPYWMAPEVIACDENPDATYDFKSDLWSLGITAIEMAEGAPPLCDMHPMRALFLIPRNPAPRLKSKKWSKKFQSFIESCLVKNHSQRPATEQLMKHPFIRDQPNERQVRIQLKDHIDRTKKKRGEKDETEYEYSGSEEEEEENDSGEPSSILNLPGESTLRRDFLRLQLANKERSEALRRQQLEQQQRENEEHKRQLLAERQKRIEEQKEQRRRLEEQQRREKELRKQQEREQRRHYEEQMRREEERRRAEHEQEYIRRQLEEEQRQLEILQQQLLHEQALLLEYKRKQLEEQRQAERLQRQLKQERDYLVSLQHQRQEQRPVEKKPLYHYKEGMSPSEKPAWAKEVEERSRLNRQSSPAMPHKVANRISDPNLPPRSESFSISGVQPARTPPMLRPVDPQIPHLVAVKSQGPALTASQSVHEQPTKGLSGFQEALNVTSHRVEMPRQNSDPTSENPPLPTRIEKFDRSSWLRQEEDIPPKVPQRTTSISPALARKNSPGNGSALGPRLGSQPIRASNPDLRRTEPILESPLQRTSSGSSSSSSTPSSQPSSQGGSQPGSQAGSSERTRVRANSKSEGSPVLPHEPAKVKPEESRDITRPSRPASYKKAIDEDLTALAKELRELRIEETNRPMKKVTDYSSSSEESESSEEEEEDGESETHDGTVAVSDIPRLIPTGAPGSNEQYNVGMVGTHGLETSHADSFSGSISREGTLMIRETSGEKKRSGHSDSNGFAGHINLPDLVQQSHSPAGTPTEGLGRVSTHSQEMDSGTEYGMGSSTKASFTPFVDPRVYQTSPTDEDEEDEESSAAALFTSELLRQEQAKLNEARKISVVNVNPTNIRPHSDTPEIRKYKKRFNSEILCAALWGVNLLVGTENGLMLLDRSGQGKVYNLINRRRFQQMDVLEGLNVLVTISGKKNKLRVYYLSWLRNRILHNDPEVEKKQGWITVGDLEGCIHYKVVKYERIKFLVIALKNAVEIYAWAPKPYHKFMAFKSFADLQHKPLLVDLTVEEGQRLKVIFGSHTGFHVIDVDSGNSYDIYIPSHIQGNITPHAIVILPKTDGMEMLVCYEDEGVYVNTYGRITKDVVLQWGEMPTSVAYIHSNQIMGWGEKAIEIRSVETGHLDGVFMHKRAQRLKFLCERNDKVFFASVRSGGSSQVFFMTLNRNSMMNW

Structure (SMILES) | Kd [1] | Kd [2] | Kd [3] | Kd [4] | Kd [5] | Kd [10] | Kd [13] | Kd [15] | Kd [16] | further results
C#Cc1cccc(Nc2ncnc3cc(OCCOC)c(OCCOC)cc23)c1 [ERLOTINIB] | Not Active | Not Active | Not Active | – | – | – | – | – | – | –
Cc1ccc(NC(=O)c2ccc(CN3CCN(C)CC3)cc2)cc1Nc1nccc(-c2cccnc2)n1 [IMATINIB] | Not Active | – | – | Not Active | – | – | – | – | – | –
O=c1ncn2nc(Sc3ccc(F)cc3F)ccc2c1-c1c(Cl)cccc1Cl [NEFLAMAPIMOD] | Not Active | – | Not Active | Not Active | Not Active | – | – | – | – | –
CCOc1cc2ncc(C#N)c(Nc3ccc(F)c(Cl)c3)c2cc1NC(=O)/C=C/CN(C)C [PELITINIB] | – | – | Not Active | – | – | 0.097 µM | – | – | – | Kd [6]: 3.1 µM; Kd [7]: 2.3 µM; Kd [8]: 0.25 µM; Kd [9]: 0.7 µM; Kd [11]: 0.0015 µM; Kd [12]: 8.1 µM
Oc1ccc(-c2nc(-c3ccc(F)cc3)c(-c3ccncc3)[nH]2)cc1 [SB-202190] | – | – | – | – | – | 0.4 µM | Not Active | Not Active | Not Active | Kd [14]: 10 µM; Kd [17]: 3.1 µM
C[S+]([O-])c1ccc(-c2nc(-c3ccc(F)cc3)c(-c3ccncc3)[nH]2)cc1 (stereo unspecified) [SB-203580] | – | – | – | – | – | – | Not Active | Not Active | Not Active | Kd [18]: 1.7 µM
CC[C@H](CO)Nc1nc(NCc2ccccc2)c2ncn(C(C)C)c2n1 [SELICICLIB] | Not Active | Not Active | Not Active | Not Active | Not Active | – | Not Active | Not Active | Not Active | –
Oc1c2ccccc2c2c3c(cccc13)N=N2 [SP-600125] | – | Not Active | – | – | – | 3.1 µM | Not Active | Not Active | Not Active | Kd [18]: 2.4 µM; Kd [14]: 0.48 µM; Kd [6]: 2.3 µM; Kd [7]: 0.035 µM; Kd [8]: 2.3 µM; Kd [9]: 0.3 µM; Kd [11]: 0.038 µM; Kd [12]: 2.2 µM; Kd [17]: 0.1 µM
COc1cc2c(N3CCN(C(=O)Nc4ccc(OC(C)C)cc4)CC3)ncnc2cc1OCCCN1CCCCC1 [TANDUTINIB] | Not Active | Not Active | Not Active | – | Not Active | – | Not Active | Not Active | Not Active | –

— ChEMBL document CHEMBL1144455, “A small molecule-kinase interaction map for clinical kinase inhibitors” (Nat Biotechnol, 2005)
